According to patent publication EP0214743B1, “Use of quinoline derivatives in the manufacture of medicaments for the treatment of cerebrovascular disorders and cerebral senility” (BEECHAM GROUP PLC, priority 1985, dated 1987):
Marks after values point to notes of the source that are not given here.

Columns and labels:
[1] = tested on: Triethyltin-induced cerebral oedema; experiment: Triethyltin-induced cerebral oedema in the rat; assay type: in vivo; settings: twice daily for 5 days, Wistar rats intoxicated with triethyltin chloride 2 mg/kg
Procedure: 1. Triethyltin-induced cerebral oedema in the rat.
The cerebral oedema is induced by oral administrations repeated for 5 consecutive days - one administration per day - of triethyltin chloride at a dose of 2 mg/kg. The test compound is also administered orally twice daily as aqueous solution or suspension (1ml/100g body-weight); these administrations are given during the 5 days of intoxication with tin. Three groups of 10 male specific pathogen-free (SPF) Wistar rats of 280 ± 10g body-weight are used: • 1 control group • 1 group intoxicated with triethyltin • 1 group intoxicated with triethyltin and treated with the studied compound. The rats are killed on the evening of the fifth day; the brain is removed, weighed fresh and after desiccation to constant weight and the water content of each brain is calculated: [H₂O] = fresh weight - dry weight. [formula] The following are then calculated: • the mean water content (M ± Sm%) of each group; • the protection index P due to the administered compound: [formula] The significance is evaluated by the Mann-Whitney test.

rat cortex = experiment: Effect of test compound on oxygen tension (pO₂) of rat cortex; assay type: in vivo; settings: for Increase in pO₂ (torr): normoxic cortex, normal anaesthetized rats; for Ischaemic Cortex Increase in pO₂ (torr) (mean ± sem): both carotid arteries ligated 3 weeks previously, N=5
Procedure: 2. Effect of test compound on oxygen tension (pO₂) of rat cortex.
Male rats (280-350g) were anaesthetized with sodium-thio pentone (100 mg/kg i.p.). The arterial blood pressure was recorded from a femoral artery.
The cranium was opened with a trephine (0.6 mm) above the praecentral cortex. The dura mata was carefully removed and a multiwire oxygen sensitive electrode was placed on the cortex.
The electrode current was continuously recorded.
After a stabilisation period the test compound was administered. The change in the cortical pO₂, produced by compound administration, was calculated for each animal.
These measurements were performed in normal animals and in animals in which both carotid arteries had been ligated 3 weeks previously in order to induce cortical ischaemia.

Row | Compound | % inhibition of cerebral oedema formation ([1]; 2x2.5 mg/kg p.o.) | Increase in pO₂ (torr) (rat cortex; 0.4 mg/kg i.v., N=3) | Ischaemic Cortex Increase in pO₂ (torr) (mean ± sem) (rat cortex; 0.5 mg/kg i.v.) | Increase in pO₂ (torr) (rat cortex; 0.8 mg/kg i.v., N=2) | Ischaemic Cortex Increase in pO₂ (torr) (mean ± sem) (rat cortex; 1.0 mg/kg i.v.) | effect on pO₂ in the rat normoxic and chronic ischaemic cortex (rat cortex; summary in words of Table 2) | % inhibition of cerebral oedema formation ([1]; 2x12.5 mg/kg p.o.) | % inhibition of cerebral oedema formation ([1]; dosage cell empty in this row, p.o.) | % inhibition of cerebral oedema formation ([1]; 2x1 mg/kg p.o.)
1 | CC1(C)Nc2ccc(C#N)cc2[C@@H](N2CCCC2=O)[C@@H]1O (relative stereo) [Compound A, trans-2,2-dimethyl-6-cyano-4-(2-oxo-1-pyrrolidinyl)-1,2,3,4-tetrahydroquinolin-3-ol] | 30* % | 2.1 ± 2.0 | 0.9 ± 0.9 | 4.1 ± 0.9 | 1.9 ± 1.9 | increases pO₂ | – | – | –
2 | CC1(C)C=C(N2CCCC2=O)c2cc(Br)ccc2N1 [Compound B, 6-Bromo-2,2-dimethyl-4-(2-oxo-1-pyrrolidinyl)-1,2-dihydroquinoline] | – | – | – | – | – | – | 41.4** % | 100** % | –
3 | CC1(C)C=C(N2CCCC2=O)c2cc(C#N)ccc2N1 [Compound C, 6-Cyano-2,2-dimethyl-4-(2-oxo-1-pyrrolidinyl)-1,2-dihydroquinoline] | – | – | – | – | – | – | 100** % | – | 53.3** %
